Series [1] is described as follows: SUPPLEMENTARY: Lyophilisation Solubility Assay (LYSA). Type of series: physicochemical. As to conditions: read-out: Kinetic_solubility.
In series [2] the target is T1, Carnitine O-palmitoyltransferase 1, muscle isoform (Homo sapiens, UniProt Q92523).
T1 sequence (Q92523 whole entry): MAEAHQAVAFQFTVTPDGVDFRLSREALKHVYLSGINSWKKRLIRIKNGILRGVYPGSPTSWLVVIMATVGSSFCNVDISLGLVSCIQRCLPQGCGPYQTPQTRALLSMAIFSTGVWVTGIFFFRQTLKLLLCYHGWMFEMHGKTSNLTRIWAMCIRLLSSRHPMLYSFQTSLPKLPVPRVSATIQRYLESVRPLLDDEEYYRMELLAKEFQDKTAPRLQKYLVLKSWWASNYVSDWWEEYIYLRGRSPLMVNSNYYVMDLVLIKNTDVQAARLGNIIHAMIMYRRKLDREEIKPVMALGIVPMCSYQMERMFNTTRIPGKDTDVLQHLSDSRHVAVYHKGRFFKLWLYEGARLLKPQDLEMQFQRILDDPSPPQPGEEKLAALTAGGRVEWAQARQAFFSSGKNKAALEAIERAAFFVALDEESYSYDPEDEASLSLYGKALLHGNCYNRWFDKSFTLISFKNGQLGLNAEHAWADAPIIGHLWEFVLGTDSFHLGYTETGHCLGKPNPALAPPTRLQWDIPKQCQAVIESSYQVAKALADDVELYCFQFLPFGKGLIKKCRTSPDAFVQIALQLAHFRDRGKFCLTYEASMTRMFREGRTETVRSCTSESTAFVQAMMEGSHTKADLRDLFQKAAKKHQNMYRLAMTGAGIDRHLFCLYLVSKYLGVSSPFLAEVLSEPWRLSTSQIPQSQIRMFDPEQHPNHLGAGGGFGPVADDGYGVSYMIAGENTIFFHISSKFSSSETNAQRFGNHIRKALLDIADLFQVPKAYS
Put plainly: SUPPLEMENTARY: Inhibition of Carnitine palmitoyltransferase 1, muscle isoform. The arrangement: species or system Muscle tissue.

Series [3] in a line: SUPPLEMENTARY: Lipophilicity (log D) Determination by high-throughput shake-flask. Type of series: physicochemical. As to conditions: octanol/water.
The target of series [4] is T2, Carnitine O-palmitoyltransferase 1, liver isoform (Rattus norvegicus, UniProt P32198).
T2 sequence (P32198 whole entry): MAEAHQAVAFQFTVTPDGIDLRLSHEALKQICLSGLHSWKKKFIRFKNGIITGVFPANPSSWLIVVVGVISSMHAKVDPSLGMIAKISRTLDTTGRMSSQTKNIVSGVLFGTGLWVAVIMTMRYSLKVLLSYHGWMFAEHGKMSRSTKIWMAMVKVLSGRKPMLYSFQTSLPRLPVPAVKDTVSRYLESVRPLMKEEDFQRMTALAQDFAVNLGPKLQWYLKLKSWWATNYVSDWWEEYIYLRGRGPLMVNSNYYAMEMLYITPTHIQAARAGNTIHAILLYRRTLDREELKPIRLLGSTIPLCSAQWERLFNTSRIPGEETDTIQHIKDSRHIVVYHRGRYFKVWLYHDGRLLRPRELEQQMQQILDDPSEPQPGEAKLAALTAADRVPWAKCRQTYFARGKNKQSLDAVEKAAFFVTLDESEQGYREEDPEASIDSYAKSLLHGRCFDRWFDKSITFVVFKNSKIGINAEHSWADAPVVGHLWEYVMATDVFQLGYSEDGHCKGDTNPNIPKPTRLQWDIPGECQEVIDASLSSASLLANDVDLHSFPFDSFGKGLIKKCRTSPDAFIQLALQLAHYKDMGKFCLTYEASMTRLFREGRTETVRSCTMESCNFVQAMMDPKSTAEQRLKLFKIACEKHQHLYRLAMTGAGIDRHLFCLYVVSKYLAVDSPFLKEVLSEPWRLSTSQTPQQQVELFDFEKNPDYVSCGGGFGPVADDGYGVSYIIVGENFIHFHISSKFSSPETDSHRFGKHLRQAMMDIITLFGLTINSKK
Description: (§1) SUPPLEMENTARY: Inhibition of Carnitine palmitoyltransferase 1, liver isoform.

Series [5] has as its target T3, Carnitine O-palmitoyltransferase 1, liver isoform (Homo sapiens, UniProt P50416).
T3 sequence (P50416 whole entry): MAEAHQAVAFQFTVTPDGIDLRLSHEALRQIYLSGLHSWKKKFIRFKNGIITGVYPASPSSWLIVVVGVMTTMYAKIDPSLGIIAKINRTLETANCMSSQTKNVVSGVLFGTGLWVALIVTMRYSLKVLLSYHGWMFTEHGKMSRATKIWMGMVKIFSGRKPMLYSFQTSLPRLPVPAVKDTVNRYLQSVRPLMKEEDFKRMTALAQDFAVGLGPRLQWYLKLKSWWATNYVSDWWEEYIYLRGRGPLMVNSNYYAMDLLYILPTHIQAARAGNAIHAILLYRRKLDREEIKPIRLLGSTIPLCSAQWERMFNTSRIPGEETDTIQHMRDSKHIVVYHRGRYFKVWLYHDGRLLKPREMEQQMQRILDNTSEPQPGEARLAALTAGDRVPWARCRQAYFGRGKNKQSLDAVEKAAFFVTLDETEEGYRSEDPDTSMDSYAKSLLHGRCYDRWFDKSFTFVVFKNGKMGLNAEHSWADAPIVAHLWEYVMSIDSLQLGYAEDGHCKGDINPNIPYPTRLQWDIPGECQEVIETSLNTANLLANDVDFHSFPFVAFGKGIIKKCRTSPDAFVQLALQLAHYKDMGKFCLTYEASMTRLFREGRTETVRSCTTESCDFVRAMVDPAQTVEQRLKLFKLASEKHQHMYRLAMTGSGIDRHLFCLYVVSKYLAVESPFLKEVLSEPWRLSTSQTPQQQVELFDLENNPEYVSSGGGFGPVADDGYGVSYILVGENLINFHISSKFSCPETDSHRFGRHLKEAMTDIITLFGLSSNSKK
Described as §1.

Series [6] is described as follows: SUPPLEMENTARY: PAMPA permeability assay. As to conditions: read-out: Permeability. The series is classed as physicochemical. For orientation: In PAMPA a lipid-coated filter parts donor from acceptor wells.
Series [7] concerns the target T4, Carnitine O-palmitoyltransferase 2, mitochondrial (Homo sapiens, UniProt P23786).
T4 sequence (P23786 whole entry): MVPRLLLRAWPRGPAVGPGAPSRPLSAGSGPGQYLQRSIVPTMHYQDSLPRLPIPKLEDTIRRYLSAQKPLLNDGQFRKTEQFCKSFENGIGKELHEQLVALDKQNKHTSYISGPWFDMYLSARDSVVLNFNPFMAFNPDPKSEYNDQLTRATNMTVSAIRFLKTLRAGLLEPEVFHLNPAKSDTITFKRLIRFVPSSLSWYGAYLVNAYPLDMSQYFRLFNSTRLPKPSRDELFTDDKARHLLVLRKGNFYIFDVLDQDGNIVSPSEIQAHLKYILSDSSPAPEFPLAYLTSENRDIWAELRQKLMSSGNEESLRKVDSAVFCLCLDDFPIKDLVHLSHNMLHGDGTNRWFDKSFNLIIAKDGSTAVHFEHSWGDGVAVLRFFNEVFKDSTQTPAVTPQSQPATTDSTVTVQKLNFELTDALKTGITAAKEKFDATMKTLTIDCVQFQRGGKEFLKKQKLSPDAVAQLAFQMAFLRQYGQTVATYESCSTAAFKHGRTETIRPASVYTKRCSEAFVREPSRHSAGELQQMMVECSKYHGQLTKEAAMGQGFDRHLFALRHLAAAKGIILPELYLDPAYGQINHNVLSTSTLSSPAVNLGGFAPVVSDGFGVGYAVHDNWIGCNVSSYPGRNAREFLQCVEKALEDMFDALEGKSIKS
Put plainly: (§2) SUPPLEMENTARY: Inhibition of Carnitine palmitoyltransferase 2.

Series [8] deals with T5, Carnitine O-palmitoyltransferase 2, mitochondrial (Rattus norvegicus, UniProt P18886).
T5 sequence (P18886 whole entry): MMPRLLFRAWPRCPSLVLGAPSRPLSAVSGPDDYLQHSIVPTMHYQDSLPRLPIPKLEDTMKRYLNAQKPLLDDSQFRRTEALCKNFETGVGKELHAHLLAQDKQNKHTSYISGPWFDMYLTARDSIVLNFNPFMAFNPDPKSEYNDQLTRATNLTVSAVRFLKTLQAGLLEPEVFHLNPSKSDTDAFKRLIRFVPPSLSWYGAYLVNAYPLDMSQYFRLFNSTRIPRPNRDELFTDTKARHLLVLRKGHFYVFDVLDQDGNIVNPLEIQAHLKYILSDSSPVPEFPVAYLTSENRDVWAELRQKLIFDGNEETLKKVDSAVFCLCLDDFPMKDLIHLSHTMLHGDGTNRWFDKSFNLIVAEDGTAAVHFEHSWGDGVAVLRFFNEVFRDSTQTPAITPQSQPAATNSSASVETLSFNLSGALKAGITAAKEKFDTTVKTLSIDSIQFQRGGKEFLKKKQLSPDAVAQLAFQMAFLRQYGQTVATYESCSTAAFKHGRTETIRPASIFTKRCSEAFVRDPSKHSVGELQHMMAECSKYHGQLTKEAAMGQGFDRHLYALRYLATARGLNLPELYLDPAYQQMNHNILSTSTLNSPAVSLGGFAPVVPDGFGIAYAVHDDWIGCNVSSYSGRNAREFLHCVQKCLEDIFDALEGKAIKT
Described as §2.

pIC50: −log10 of the molar value. Converted amounts (≈) assume the structure as drawn.

In the case of `COc1ccc(Cl)cc1S(=O)(=O)N(c1cc(C(=O)Nc2ncc(CC(=O)O)s2)cc2c1OCO2)C(C)C`, the solubility kinetic in series [1] amounted to 109 µg/mL (≈ 192 µM). Further, the negative-log IC50 (pIC50) in series [2] was 6.09; in series [4], 6.43; in series [5] it was 6.79; in series [7] it was 4.42; in series [8], less than 4.00. Moreover, the log distribution coefficient (logD) in series [3] came to 2.84. In addition, the Papp in series [6] turned out to be 3.53 ×10⁻⁶ cm/s.

Consider `COc1ccc(Cl)cc1S(=O)(=O)N1CCOc2ccc(C(=O)Nc3ncc(CC(=O)O)s3)cc21`, for which, in series [1], the solubility kinetic came to 31 µg/mL (≈ 59.2 µM). For the same molecule, the pIC50 in series [2] was 5.84; in series [4], 7.41; in series [5] it was 7.38; in series [7], less than 4.00; in series [8] it was less than 4.00. In series [3], the logD stood at 0.05. The Papp in series [6] was 2.18 ×10⁻⁶ cm/s.

On to `COc1ccc(Cl)cc1S(=O)(=O)N1CCc2ccc(C(=O)Nc3ccn(CC(=O)O)n3)cc21`, for which the solubility kinetic in series [1] is greater than 526 µg/mL. Further, the pIC50 in series [2] is 5.09; in series [4] it was 7.00; in series [5] it was 7.07; in series [7], less than 4.00; in series [8] it was less than 4.00. The pH-dependent lipophilicity (logD) in series [3] is 1.15. In addition, the Papp in series [6] amounted to 0.23 ×10⁻⁶ cm/s.

Take `O=C(O)c1ccc(NC(=O)c2ccc(NS(=O)(=O)c3cc(Cl)cc(Cl)c3)s2)cc1`: in series [1], the solubility kinetic was 378 µg/mL (≈ 802 µM). Further, the negative-log IC50 (pIC50) is 5.36 in series [2]; 6.58 in series [4]; 6.82 in series [5]; less than 4.00 in series [7]; less than 4.00 in series [8]. The logD in series [3] is -1.09. Besides, the Papp in series [6] came to 0.01 ×10⁻⁶ cm/s.

As to `COc1ccc(Cl)cc1S(=O)(=O)N1C[C@@H](C)c2ccc(C(=O)Nc3ccc(C(=O)O)cc3)cc21`, the solubility kinetic in series [1] stood at 6 µg/mL (≈ 12 µM). For the same molecule, the negative-log IC50 (pIC50) in series [2] was 5.17; in series [4], 7.54; in series [5] it was 7.44; in series [7], 6.34; in series [8], 5.85. In series [3], the logD stood at 2.98. The Papp in series [6] is 2.86 ×10⁻⁶ cm/s.

Turning to `COc1ccc(Cl)cc1S(=O)(=O)N1CCOc2c(Cl)cc(C(=O)Nc3nc(CC(=O)O)cs3)cc21`, the solubility kinetic in series [1] amounted to 12 µg/mL (≈ 21.5 µM). Further, the negative-log IC50 (pIC50) is 5.93 in series [2]; 7.27 in series [4]; 7.30 in series [5]; less than 4.00 in series [7]; less than 4.00 in series [8]. This molecule had a logD in series [3] of 2.28. In addition, in series [6], the Papp was 2.6 ×10⁻⁶ cm/s.

`O=C(COc1ccccc1)N1CCCC[C@@H]1c1nc(-c2cc[nH]c(=O)c2)no1`: the solubility kinetic in series [1] came out at 275 µg/mL (≈ 723 µM). Further, the pIC50 in series [2] is less than 4.00; in series [4] it was 6.47; in series [5] it was 7.08; in series [7], less than 4.00; in series [8], 4.05. Further, in series [3], the logD is 1.9. In addition, the Papp in series [6] came to 5.39 ×10⁻⁶ cm/s.

Turning to `COc1ccc(Cl)cc1CN1C(=O)OC(C)(C)c2ccc(C(=O)Nc3nc(CC(=O)O)cs3)cc21`, the solubility kinetic in series [1] came to 150 µg/mL (≈ 291 µM). Besides, the pIC50 in series [2] is 6.00; in series [4], 7.22; in series [5], 7.23; in series [7], less than 4.00; in series [8], less than 4.00. Further, the pH-dependent lipophilicity (logD) in series [3] came out at 1.17. Besides, in series [6], the Papp is 1.93 ×10⁻⁶ cm/s.

For the molecule `Cc1nnsc1-c1noc([C@H]2CCCCN2C(=O)COc2ccccc2)n1`, the solubility kinetic in series [1] was determined as 27 µg/mL (≈ 70 µM). Moreover, the pIC50 in series [2] is less than 4.00; in series [4] it was 5.78; in series [5], 6.53; in series [7], less than 4.00; in series [8], less than 4.00. In series [3], this molecule yielded a logD of 3.04. Besides, the Papp in series [6] was 5.95 ×10⁻⁶ cm/s.

With `COc1ccc(Cl)cc1S(=O)(=O)N1CCOc2ccc(C(=O)Nc3ccn(CC(=O)O)n3)cc21`, the solubility kinetic in series [1] is greater than 675 µg/mL. Also, the negative-log IC50 (pIC50) in series [2] was 5.00; in series [4] it was 6.77; in series [5], 6.67; in series [7] it was less than 4.00; in series [8] it was less than 4.00. The molecule further had a logD in series [3] of 1.27. Also, the Papp in series [6] amounted to 0.09 ×10⁻⁶ cm/s.

Broadly, the pIC50 is the negative decadic logarithm of the IC50, by convention in mol/L. High values mean a low IC50, low ones a high IC50. In general, logD refers to lipophilicity at a set pH, counting ionised and neutral species. Lower therefore signals lower lipophilicity.
